Consider two compounds from ChEMBL document CHEMBL4387741, “Optimization of novel reversible Bruton's tyrosine kinase inhibitors identified using Tethering-fragment-based screens” (Bioorg Med Chem, 2019).

For data set [1], the target named is Non-receptor tyrosine-protein kinase TYK2 (Homo sapiens) (UniProt P29597). The data set can be described thus: Inhibition of wild-type human partial length TYK2 JH2 pseudokinase domain (G556 to D888 residues) expressed in mammalian expression system at 1 uM by Kinomescan method relative to control.
In data set [2] the target is Discoidin domain-containing receptor 2 (Homo sapiens) (UniProt Q16832). The data set can be described thus: Inhibition of wild-type human partial length DDR2 (V555 to E855 residues) expressed in mammalian expression system at 1 uM by Kinomescan method relative to control.
A short description of data set [3]: Oral bioavailability in Sprague-Dawley rat using amorphous solid form of compound. In kind it is ADME, organism-based. Particulars: in vivo.
The nature of data set [4]: Kinetic solubility of the compound at pH 1.5 by shake flask assay. Format: physicochemical. Particulars: buffer, read-out: Kinetic_solubility.
Data set [5] deals with Phosphatidylinositol 4,5-bisphosphate 3-kinase catalytic subunit beta isoform (Homo sapiens) (UniProt P42338). The data set can be described thus: Inhibition of wild-type human partial length PIK3CB (P118 to S1070 residues) expressed in mammalian expression system at 1 uM by Kinomescan method relative to control.
In data set [6] the target is Eukaryotic translation initiation factor 2-alpha kinase 1 (Homo sapiens) (UniProt Q9BQI3). Nature of the data set: Inhibition of wild-type human partial length EIF2AK1 (Q147 to E603 residues) expressed in mammalian expression system at 1 uM by Kinomescan method relative to control.
The test system of data set [7] is Phosphatidylinositol 4,5-bisphosphate 3-kinase catalytic subunit alpha isoform (Homo sapiens), P42336 [I800L]. Nature of the data set: Inhibition of human partial length PIK3CA I800L mutant (R108 to N1068 residues) expressed in mammalian expression system at 1 uM by Kinomescan method relative to control.
Data set [8] concerns the target Mitogen-activated protein kinase kinase kinase kinase 1 (Homo sapiens) (UniProt Q92918). The data set can be described thus: Inhibition of wild-type human full length HPK1 (M1 to R799 residues) expressed in bacterial expression system at 1 uM by Kinomescan method relative to control.
The target of data set [9] is Cyclin-dependent kinase 3 (Homo sapiens) (UniProt Q00526). Nature of the data set: Inhibition of wild-type human full length CDK3 (M1 to H305 residues) expressed in bacterial expression system at 1 uM by Kinomescan method relative to control.
The target in data set [10] is 5'-AMP-activated protein kinase catalytic subunit alpha-1 (Homo sapiens) (UniProt Q13131). The data set can be described thus: Inhibition of wild-type human partial length AMPK alpha1 (M1 to E306 residues) expressed in bacterial expression system at 1 uM by Kinomescan method relative to control.
The target in data set [11] is Cyclin-dependent kinase-like 5 (Homo sapiens) (UniProt O76039). Nature of the data set: Inhibition of wild-type human partial length CDKL5 (M1 to S337 residues) expressed in mammalian expression system at 1 uM by Kinomescan method relative to control.
Data set [12] deals with Calcium/calmodulin-dependent protein kinase type II subunit beta (Homo sapiens) (UniProt Q13554). Nature of the data set: Inhibition of wild-type human partial length CAMK2B (M1 to Q380 residues) expressed in bacterial expression system at 1 uM by Kinomescan method relative to control.
Data set [13] deals with BDNF/NT-3 growth factors receptor (Homo sapiens) (UniProt Q16620). The data set can be described thus: Inhibition of wild-type human partial length TRKB (Q547 to G838 residues) expressed in mammalian expression system at 1 uM by Kinomescan method relative to control.
The target in data set [14] is Serine/threonine-protein kinase LATS2 (Homo sapiens) (UniProt Q9NRM7). The data set can be described thus: Inhibition of wild-type human partial length LATS2 (Q641 to V1088 residues) expressed in mammalian expression system at 1 uM by Kinomescan method relative to control.
Data set [15] concerns the target Membrane-associated tyrosine- and threonine-specific cdc2-inhibitory kinase (Homo sapiens) (UniProt Q99640). The data set can be described thus: Inhibition of wild-type human partial length PKMYT1 (A88 to G366 residues) expressed in bacterial expression system at 10 uM by Kinomescan method relative to control.
Data set [16] concerns the target Cyclin-dependent kinase 15 (Homo sapiens) (UniProt Q96Q40). Nature of the data set: Inhibition of wild-type human full length PFTAIRE2 (M1 to W384 residues) expressed in bacterial expression system at 10 uM by Kinomescan method relative to control.
The target of data set [17] is Protein kinase C eta type (Homo sapiens) (UniProt P24723). The data set can be described thus: Inhibition of wild-type human partial length PRKCH (S324 to P683 residues) expressed in bacterial expression system at 10 uM by Kinomescan method relative to control.
Data set [18] deals with Myosin light chain kinase (Homo sapiens) (UniProt Q32MK0). The data set can be described thus: Inhibition of wild-type human partial length MLCK (D488 to K800 residues) expressed in bacterial expression system at 10 uM by Kinomescan method relative to control.
In data set [19] the test system is Receptor-type tyrosine-protein kinase FLT3 (Homo sapiens), P36888 [D835Y]. Nature of the data set: Inhibition of human partial length FLT3 D835Y mutant (Q580 to Y969 residues) expressed in bacterial expression system at 10 uM by Kinomescan method relative to control.
Data set [20] concerns the target Serine/threonine-protein kinase SIK3 (Homo sapiens) (UniProt Q9Y2K2). The data set can be described thus: Inhibition of wild-type human partial length QSK (A90 to L395 residues) expressed in mammalian expression system at 10 uM by Kinomescan method relative to control.
The target in data set [21] is RAC-gamma serine/threonine-protein kinase (Homo sapiens) (UniProt Q9Y243). Nature of the data set: Inhibition of wild-type human partial length AKT3 expressed in bacterial expression system at 10 uM by Kinomescan method relative to control.
The target of data set [22] is Inhibitor of nuclear factor kappa-B kinase subunit beta (Homo sapiens) (UniProt O14920). The data set can be described thus: Inhibition of wild-type human full length IKK-beta (M1 to S756 residues) expressed in mammalian expression system at 10 uM by Kinomescan method relative to control.
Data set [23] addresses Cyclin-dependent kinase-like 5 (Homo sapiens) (UniProt O76039). The data set can be described thus: Inhibition of wild-type human partial length CDKL5 (M1 to S337 residues) expressed in mammalian expression system at 10 uM by Kinomescan method relative to control.
The target of data set [24] is Serine/threonine-protein kinase PAK 3 (Homo sapiens) (UniProt O75914). Nature of the data set: Inhibition of wild-type human full length PAK3 (M1 to R544 residues) expressed in bacterial expression system at 10 uM by Kinomescan method relative to control.
Data set [25] concerns the target Mast/stem cell growth factor receptor Kit (Homo sapiens) (UniProt P10721). Nature of the data set: Inhibition of wild-type human partial length KIT (I571 to D952 residues) expressed in bacterial expression system at 10 uM by Kinomescan method relative to control.
Data set [26] concerns the target SNF-related serine/threonine-protein kinase (Homo sapiens) (UniProt Q9NRH2). Nature of the data set: Inhibition of wild-type human partial length SNRK (M1 to E339 residues) expressed in mammalian expression system at 10 uM by Kinomescan method relative to control.
The test system of data set [27] is Epidermal growth factor receptor (Homo sapiens), P00533 [UNDEFINED MUTATION]. Nature of the data set: Inhibition of human partial length EGFR L747-E749del/A750P mutant expressed in bacterial expression system at 10 uM by Kinomescan method relative to control.
Data set [28] deals with Interleukin-1 receptor-associated kinase 4 (Homo sapiens) (UniProt Q9NWZ3). The data set can be described thus: Inhibition of wild-type human partial length IRAK4 (M1 to S460 residues) expressed in mammalian expression system at 10 uM by Kinomescan method relative to control.

≈ marks a conversion by molar mass, not a printed value.

Cyclin-dependent kinase-like 5 (Homo sapiens), sequence (O76039 whole entry, the tested form may be a part): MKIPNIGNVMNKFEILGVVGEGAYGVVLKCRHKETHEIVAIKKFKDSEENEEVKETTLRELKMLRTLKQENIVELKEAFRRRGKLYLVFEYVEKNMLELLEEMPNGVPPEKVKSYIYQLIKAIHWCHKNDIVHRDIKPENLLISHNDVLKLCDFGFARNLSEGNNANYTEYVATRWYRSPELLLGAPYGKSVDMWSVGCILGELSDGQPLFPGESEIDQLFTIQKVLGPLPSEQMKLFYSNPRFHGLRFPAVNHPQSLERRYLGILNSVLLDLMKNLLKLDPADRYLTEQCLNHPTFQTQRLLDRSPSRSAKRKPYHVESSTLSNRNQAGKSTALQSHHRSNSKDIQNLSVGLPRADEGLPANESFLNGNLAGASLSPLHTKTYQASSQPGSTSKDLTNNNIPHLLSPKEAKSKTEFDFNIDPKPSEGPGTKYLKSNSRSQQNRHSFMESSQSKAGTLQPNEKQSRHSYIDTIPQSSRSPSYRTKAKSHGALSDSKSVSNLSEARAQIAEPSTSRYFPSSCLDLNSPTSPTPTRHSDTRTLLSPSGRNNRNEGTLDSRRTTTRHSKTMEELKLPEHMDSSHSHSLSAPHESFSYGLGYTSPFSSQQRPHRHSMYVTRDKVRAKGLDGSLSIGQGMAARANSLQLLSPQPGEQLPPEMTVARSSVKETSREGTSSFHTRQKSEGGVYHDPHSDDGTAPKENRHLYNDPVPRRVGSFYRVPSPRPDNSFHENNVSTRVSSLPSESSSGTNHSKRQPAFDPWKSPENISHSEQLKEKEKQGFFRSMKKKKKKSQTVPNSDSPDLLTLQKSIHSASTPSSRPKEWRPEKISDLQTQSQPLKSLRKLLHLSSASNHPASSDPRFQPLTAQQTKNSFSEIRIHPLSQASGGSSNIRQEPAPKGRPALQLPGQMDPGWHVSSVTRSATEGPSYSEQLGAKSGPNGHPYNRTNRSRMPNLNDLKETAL
Serine/threonine-protein kinase PAK 3 (Homo sapiens), sequence (O75914 whole entry, looked up, the tested form may be a part): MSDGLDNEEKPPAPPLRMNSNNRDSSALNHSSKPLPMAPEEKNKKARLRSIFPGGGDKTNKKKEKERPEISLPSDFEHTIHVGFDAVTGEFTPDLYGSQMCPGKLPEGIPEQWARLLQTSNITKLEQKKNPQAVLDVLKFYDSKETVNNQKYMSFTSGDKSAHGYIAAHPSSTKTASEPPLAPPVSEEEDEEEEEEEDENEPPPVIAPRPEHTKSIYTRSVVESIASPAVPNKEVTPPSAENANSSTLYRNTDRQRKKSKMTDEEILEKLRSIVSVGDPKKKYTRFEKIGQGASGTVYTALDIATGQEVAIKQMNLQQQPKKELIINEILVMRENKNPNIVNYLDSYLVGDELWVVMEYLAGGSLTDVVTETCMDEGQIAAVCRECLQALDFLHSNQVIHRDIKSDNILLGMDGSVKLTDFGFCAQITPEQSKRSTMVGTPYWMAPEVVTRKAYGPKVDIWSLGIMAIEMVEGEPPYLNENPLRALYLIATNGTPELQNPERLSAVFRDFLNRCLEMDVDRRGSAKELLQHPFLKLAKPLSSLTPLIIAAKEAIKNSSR
Non-receptor tyrosine-protein kinase TYK2 (Homo sapiens), sequence (P29597 whole entry, the tested form may be a part): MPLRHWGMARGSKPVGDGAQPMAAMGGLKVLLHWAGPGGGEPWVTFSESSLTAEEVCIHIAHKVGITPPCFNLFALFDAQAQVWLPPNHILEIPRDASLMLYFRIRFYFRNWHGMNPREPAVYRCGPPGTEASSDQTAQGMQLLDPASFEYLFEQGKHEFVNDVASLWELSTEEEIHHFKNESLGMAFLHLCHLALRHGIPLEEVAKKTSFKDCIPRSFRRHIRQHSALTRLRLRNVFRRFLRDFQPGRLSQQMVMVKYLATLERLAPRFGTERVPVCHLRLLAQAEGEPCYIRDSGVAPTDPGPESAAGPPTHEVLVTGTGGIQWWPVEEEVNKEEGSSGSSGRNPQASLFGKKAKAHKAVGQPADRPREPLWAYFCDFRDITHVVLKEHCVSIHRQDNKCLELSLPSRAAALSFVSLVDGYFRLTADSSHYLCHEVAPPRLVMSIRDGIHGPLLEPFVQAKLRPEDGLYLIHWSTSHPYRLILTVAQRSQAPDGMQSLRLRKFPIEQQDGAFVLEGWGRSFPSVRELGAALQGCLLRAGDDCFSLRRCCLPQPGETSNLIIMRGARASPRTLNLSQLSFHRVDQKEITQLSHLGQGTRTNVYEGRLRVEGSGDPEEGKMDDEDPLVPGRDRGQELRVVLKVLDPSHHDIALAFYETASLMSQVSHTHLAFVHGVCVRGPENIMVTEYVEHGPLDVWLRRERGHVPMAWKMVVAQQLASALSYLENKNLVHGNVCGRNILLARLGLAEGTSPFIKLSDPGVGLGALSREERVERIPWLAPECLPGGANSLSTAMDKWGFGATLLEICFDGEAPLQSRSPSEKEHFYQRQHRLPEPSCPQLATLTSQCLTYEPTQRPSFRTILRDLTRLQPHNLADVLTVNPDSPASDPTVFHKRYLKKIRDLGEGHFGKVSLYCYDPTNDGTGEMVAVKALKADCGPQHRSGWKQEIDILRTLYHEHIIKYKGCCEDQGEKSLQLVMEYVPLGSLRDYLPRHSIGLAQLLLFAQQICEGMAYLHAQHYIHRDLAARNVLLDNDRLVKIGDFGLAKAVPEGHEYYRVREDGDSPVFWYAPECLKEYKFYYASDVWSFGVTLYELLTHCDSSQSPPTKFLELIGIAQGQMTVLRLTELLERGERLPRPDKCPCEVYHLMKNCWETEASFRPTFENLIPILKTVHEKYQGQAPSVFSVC
Phosphatidylinositol 4,5-bisphosphate 3-kinase catalytic subunit beta isoform (Homo sapiens), sequence (P42338 whole entry, looked up, the tested form may be a part, canonical isoform): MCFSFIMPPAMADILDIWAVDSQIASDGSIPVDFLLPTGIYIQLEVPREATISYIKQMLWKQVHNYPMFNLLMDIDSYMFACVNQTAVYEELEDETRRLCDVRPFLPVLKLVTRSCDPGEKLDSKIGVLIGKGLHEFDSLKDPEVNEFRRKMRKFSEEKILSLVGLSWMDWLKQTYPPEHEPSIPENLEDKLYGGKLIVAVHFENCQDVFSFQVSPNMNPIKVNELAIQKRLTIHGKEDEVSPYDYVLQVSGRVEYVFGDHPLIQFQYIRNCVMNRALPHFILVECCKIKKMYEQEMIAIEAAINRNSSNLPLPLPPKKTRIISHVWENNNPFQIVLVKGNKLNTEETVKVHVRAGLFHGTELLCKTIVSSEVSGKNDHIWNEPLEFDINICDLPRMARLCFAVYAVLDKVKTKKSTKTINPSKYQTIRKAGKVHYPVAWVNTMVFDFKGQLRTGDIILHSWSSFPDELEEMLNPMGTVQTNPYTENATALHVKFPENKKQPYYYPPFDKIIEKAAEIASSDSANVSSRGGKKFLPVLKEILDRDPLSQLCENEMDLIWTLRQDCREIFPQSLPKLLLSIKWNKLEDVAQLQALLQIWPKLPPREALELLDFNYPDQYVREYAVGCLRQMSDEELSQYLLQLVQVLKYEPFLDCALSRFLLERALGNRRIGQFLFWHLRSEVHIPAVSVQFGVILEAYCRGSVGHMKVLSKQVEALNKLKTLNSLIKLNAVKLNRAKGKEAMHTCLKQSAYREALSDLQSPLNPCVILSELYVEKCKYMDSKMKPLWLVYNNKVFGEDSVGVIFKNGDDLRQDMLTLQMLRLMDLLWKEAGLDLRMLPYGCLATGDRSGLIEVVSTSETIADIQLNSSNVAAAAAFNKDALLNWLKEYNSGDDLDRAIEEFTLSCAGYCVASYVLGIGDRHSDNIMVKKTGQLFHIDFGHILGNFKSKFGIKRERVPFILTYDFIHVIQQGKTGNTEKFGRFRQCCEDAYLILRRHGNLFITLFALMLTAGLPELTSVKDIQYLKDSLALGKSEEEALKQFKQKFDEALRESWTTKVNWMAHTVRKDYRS
RAC-gamma serine/threonine-protein kinase (Homo sapiens), sequence (Q9Y243 whole entry, the tested form may be a part): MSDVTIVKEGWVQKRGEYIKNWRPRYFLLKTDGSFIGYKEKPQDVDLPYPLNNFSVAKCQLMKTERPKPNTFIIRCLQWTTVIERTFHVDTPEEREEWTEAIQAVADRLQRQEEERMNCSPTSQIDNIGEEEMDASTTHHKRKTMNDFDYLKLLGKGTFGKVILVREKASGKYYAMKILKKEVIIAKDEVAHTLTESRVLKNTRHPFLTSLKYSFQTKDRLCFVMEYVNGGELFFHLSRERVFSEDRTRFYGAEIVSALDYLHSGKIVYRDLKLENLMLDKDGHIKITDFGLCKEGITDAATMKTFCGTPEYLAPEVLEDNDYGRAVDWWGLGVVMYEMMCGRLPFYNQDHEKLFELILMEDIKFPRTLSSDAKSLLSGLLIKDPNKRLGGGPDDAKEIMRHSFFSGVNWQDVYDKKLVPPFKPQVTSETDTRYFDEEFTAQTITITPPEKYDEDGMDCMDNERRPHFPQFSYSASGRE
Inhibitor of nuclear factor kappa-B kinase subunit beta (Homo sapiens), sequence (O14920 whole entry, the tested form may be a part): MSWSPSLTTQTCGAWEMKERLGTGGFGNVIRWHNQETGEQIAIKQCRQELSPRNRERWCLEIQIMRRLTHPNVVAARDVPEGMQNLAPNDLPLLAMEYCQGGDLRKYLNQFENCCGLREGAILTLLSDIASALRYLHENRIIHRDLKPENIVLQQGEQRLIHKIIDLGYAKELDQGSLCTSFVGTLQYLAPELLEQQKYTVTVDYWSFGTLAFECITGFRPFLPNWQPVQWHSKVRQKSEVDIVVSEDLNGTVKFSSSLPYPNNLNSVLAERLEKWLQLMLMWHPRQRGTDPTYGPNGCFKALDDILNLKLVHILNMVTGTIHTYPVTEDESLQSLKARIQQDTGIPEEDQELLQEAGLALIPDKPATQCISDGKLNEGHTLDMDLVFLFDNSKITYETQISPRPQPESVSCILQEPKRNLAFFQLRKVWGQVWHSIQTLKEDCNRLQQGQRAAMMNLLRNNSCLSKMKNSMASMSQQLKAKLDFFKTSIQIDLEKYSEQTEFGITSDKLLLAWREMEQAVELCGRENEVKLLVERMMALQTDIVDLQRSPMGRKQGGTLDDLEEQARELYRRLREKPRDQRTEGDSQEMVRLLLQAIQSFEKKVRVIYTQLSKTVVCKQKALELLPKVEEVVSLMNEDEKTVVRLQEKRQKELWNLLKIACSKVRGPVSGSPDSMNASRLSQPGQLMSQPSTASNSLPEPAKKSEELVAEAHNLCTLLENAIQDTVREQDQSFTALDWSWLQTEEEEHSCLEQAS

Broadly, the inhibition is the relative decrease from the control value, in per cent. As usually defined, the bioavailability is the share of a dose that reaches the circulation, judged against a reference dose that is usually intravenous. A higher bioavailability goes with good availability. `O=C(Nc1cccc([C@@H]2CN(c3ncnc4[nH]ccc34)CCN2CCO)c1)Nc1c(F)cccc1N1CCCC1`: the inhibition in [1] was 71%; in data set [2], 73%; in [5] it was 100%; in [6] it was 100%; in data set [7], 74%; in [8] it was 100%. The inhibition in [9] came out at 88%; in data set [10] it was 61%; in data set [11], 100%; in [12], 92%; in [13], 100%; in data set [14] it was 86%. Further, in data set [3], the bioavailability amounted to 12%. In data set [4], the solubility kinetic was 94 µg/mL (≈ 173 µM).
Turning to `O=C(Nc1cccc([C@H]2CCCN(c3ncnc4[nH]ccc34)C2)c1)Nc1ccccc1N1CCCC1`, the inhibition in [15] amounted to 71%; in data set [16], 93%; in data set [17] it was 71%; in data set [18] it was 100%; in data set [19], 1.9%; in data set [20] it was 88%. In addition, the inhibition in data set [21] was 100%; in data set [22], 25%; in data set [23] it was 96%; in data set [24], 4.8%; in data set [25], 0.25%; in data set [26], 86%. Further, the inhibition came out at 82% in [27] and 85% in data set [28].
